Measured values: PMC9181887, “In Vitro Antithrombotic, Hematological Toxicity, and Inhibitor Studies of Protocatechuic, Isovanillic, and p-Hydroxybenzoic Acids from Maclura tricuspidata (Carr.) Bur” (Molecules, 2022)

Columns and labels:
[1] = test system: platelets; test: Hematological study, platelet count by hemocytometer; format: cell-based; conditions: 10 min, vs control
Procedure: Figure 1 Blood cytotoxic effect of PA (A), IVA (B), and 4-HA (C). Aliquots of washed platelets (10^3/mL), erythrocytes (10^6/mL), and leukocytes (10^3/mL) were treated with or without the compounds for 10 min and cell number was determined by hemocytometer counts. Each value is the mean ± SD of triplicate measurements. * p < 0.05 and ** p < 0.01, compared to each control groups. 10–500, 10–100 μg of each compound treated.
Total white blood cells (leukocytes) and red blood cells (erythrocytes) were counted using a hemocytometer, as previously described. Blood was diluted 1:200 with Hayem’s fluid and the cells were counted in a loaded hemocytometer chamber. To count the blood platelets, blood was diluted in a ratio of 1:20 with a diluting fluid, and four large (1 mm^2) corner squares of the hemocytometer were counted under a light microscope. Aliquots of leukocytes (0.1 mL; 10^3/mL), erythrocytes (0.1 mL; 10^6/mL), and platelets (0.1 mL; 10^3/mL) were treated with or without the compounds for 10 min.

[2] = test system: fibrin polymers and clots (fibrinogen, thrombin, CaCl2); test: Turbidity assay of fibrin polymer/clot formation; format: biochemical, Human; conditions: 1, 2, 5, 10, and 20 μg; 2000 s
Procedure: Inhibition of fibrin clot formation was determined using a turbidity assay as previously described. The reaction mixtures were prepared by the addition of the compounds, 10 IU u-PA as a positive control (PC), or vehicle as a negative control (NC) 2 in a volume of 100 μL of 5 mM CaCl2, 0.5 U/mL of thrombin, and […] fibrinogen in 20 mM Tris-HCl (pH 7.4). The mixture was incubated for 5 min at 37 °C, and turbidity was monitored at 405 nm every 1 min for 2000 s using a microplate reader (Molecular Devices, Sunnyvale, CA, USA). The clot density was presented as a percentage of inhibition.

[3] = test system: fibrin clot formation (fibrinogen, thrombin, CaCl2); test: Fibrin clot assay; format: biochemical, Human; conditions: 100 μg
Procedure: The fibrin clot assay, as previously described, was performed to evaluate the improvement in blood circulation by the attenuation of fibrin formation. First, 1.5% fibrinogen, 0.5 U/mL of thrombin, and 5 mM CaCl2 in 20 mM Tris-HCl in a volume of 100 μL were added to different concentrations of compounds or 10–20 IU u-PA as PC 1–2. These prepared fibrin clot mixtures were incubated at 37 °C for 30 min. Each tube of the fibrin clot mixture was photographed, and the density of the clots was measured using the ImageJ 1.46 b image analysis software (National Institutes of Health, Bethesda, MD, USA). Inhibitory activity was calculated as follows:Inhibitory activity (%) = [1 − (density control without sample−density sample)/density control without sample] × 100

[4] = test system: fibrin clot network (Alexa Fluor 488 fibrinogen, thrombin); test: Fibrin clot assay using a fluorescence microscope; format: biochemical, human; conditions: fluorescent fibrinogen and thrombin, 30 min
Procedure: Fibrin clots were prepared by mixing 2.6 μM human fibrinogen and 0.4 μM Alexa Fluor 488 fibrinogen with 0.25 U/mL of thrombin in 20 mM Tris-HCl (pH 7.4) in a glass-bottom dish and treated with compounds or 20 IU u-PA as previously described. The mixtures were incubated for 30 min at 37 °C in the dark. Fibrin clots were observed under a fluorescence microscope (Nikon, Eclipse TE 2000-U, Kyoto, Japan) and photographed. Fibrin clots pre-treated with saline (control group) or […] (positive control group). Quantitative analysis of the fluorescent fibrin clots was performed using the ImageJ 1.46 b image analysis software.

[5] = test system: mouse blood clots; test: In vitro antithrombotic activity assay using blood clot; conditions: vs NC group treated with saline, p < 0.01, 1 h
Procedure: To determine the in vitro antithrombotic activity, a blood clot assay was performed based on a previously described method. All experimental procedures were performed in accordance with the related ethical regulations of Gwangju University, and were approved by the Institutional Animal Care and Use Committee of Jeonnam Institute of Natural Resources Research, Jangheung, South Korea (2021-JINR2001). Fresh mouse blood clots (40 μg) treated with the compounds, 10–20 IU u-PA as PC 1–2, or saline as NC were incubated for 1 h. After incubation, blood clot degradation in each group was analyzed using absorbance values at a wavelength of 410 nm. The maximum absorbance wavelength was determined by measuring the absorption spectra in the wavelength range of 340–850 nm.

[6] = test system: thrombin-activated platelets; test: ATP release assay; format: cell-based; conditions: 10–100 μg, vs thrombin group, p < 0.05; except 10 μg of 4-HA (p = 0.915)
Procedure: Figure 7 Effect of PA, IVA, and 4-HA on granule secretion. Aliquots of washed platelets pre-treated with or without the compounds for 5 min were stimulated with 0.25 U/mL thrombin at 37 °C for 5 min. After stimulation, the platelets were centrifuged, and the supernatants were collected. Using these supernatants, ATP (A) or serotonin (B) release was determined according to the manufacturer’s instructions. Each value is the mean ± SD of triplicate measurements. # p < 0.01, compared to each control groups. * p < 0.05 and ** p < 0.01, compared to only thrombin-treated control groups. Thrombin, thrombin treated only; PA10-100, 10–100 μg of PA treated; IVA10-100, 10–100 μg of IVA treated; 4-HA10-100, 10–100 μg of 4-HA treated.
Aliquots of washed platelets (250 × 10^6/mL) pre-treated with the compounds for 5 min were activated with 0.25 U/mL of thrombin for 5 min at 37 °C, according to a previously described method, with slight modifications. After activation, the supernatant from centrifuged platelets was used. ATP release was evaluated using an ATP assay kit (Biomedical Research Service Center, Buffalo, NY, USA), according to the manufacturer’s instructions.

Q: `COc1ccc(C(=O)O)cc1O` [IVA, isovanillic acid] was tested. Which “effect on platelet number” value ([1]; 10–50 μg/mL) did it give?
A: did not cause any effect

Q: What about the “fibrin polymer/clot formation (turbidity at 405 nm)” value [2] of the same compound?
A: dose-dependently inhibited

Q: What about the “inhibition of fibrin clot formation” value [3] of the same compound?
A: 55.6 ± 1.7%

Q: And the “fibrin network structure / clot density” value [4]?
A: morphological changes in the network and reduced fibrin clot density

Q: And the blood clot degradation [5]?
A: significantly degraded

Q: What about the “thrombin-stimulated ATP secretion levels” value [6] of the same compound?
A: significantly decreased

Q: `O=C(O)c1ccc(O)c(O)c1` [PA, protocatechuic acid] was tested. Which “effect on platelet number” value ([1]; 10–100 μg/mL) did it give?
A: did not cause any effect

Q: What about the “fibrin polymer/clot formation (turbidity at 405 nm)” value [2] of the same compound?
A: dose-dependently inhibited

Q: And the “inhibition of fibrin clot formation” value [3]?
A: 66.9 ± 3.3%

Q: What about the “fibrin network structure / clot density” value [4] of the same compound?
A: morphological changes in the network and reduced fibrin clot density

Q: What about the blood clot degradation [5] of the same compound?
A: significantly degraded

Q: And the “thrombin-stimulated ATP secretion levels” value [6]?
A: significantly decreased

Q: What does the source list for `O=C(O)c1ccc(O)cc1` [4-HA, 4-hydroxybenzoic acid]?
A: effect on platelet number ([1]; 10–50 μg/mL): did not cause any effect; fibrin polymer/clot formation (turbidity at 405 nm) [2]: dose-dependently inhibited; inhibition of fibrin clot formation [3]: 67.1 ± 1.3%; fibrin network structure / clot density [4]: morphological changes in the network and reduced fibrin clot density; blood clot degradation [5]: significantly degraded; thrombin-stimulated ATP secretion levels [6]: significantly decreased
